Among the test systems are COLO 205; OVCAR-5; LOX IMVI; MDA-MB-435; KM12; HOP-92; U-251; OVCAR-3; NCI-H460; A549; MCF7; ACHN; DU-145; MOLT-4; Hs-578T; CCRF-CEM; SK-MEL-5; OVCAR-8; IGROV-1; NCI-H226.
Common to all, as to test: NCI anticancer screen, dose series, 48 h

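Following 48 hours of exposure in 96-well plates, responses at five concentrations were used to interpolate endpoints linearly. GI50 is the concentration that inhibits growth by half.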 Active and inactive are the calls of the source. No stated cut-off is given here; in the data, active = GI50 up to about 1.1 µM and inactive = higher.

`Cc1c(C)c(C)c(-n2c(=O)n(C)c(=O)n2C(C)(C)C)c(C)c1C`: the GI50 in the assay with COLO 205, in the assay with OVCAR-5, in the assay on LOX IMVI, with MDA-MB-435, in the assay with KM12 and with HOP-92 was > 100 µM (inactive) each time. The GI50 in the assay on U-251, with OVCAR-3, with NCI-H460, in the assay on A549, in the assay with MCF7 and in the assay on ACHN was > 100 µM (inactive) throughout. The GI50 in the assay on DU-145 is > 100 µM (inactive); in the assay on MOLT-4, > 100 µM (inactive); in the assay with Hs-578T it was > 100 µM (inactive); in the assay on CCRF-CEM it was 38 µM (inactive); in the assay on SK-MEL-5, > 100 µM (inactive).

As for `N#Cc1nc(-c2ccsc2)oc1N`, the GI50 in the assay on OVCAR-8, in the assay on OVCAR-5, in the assay with LOX IMVI, in the assay on MDA-MB-435, in the assay on KM12 and in the assay with HOP-92 was > 100 µM (inactive) in each case. Besides, the GI50 is > 100 µM (inactive) in the assay on U-251; 71.8 µM (inactive) in the assay on IGROV-1; > 100 µM (inactive) in the assay on A549; > 100 µM (inactive) with MCF7; > 100 µM (inactive) in the assay with ACHN; > 100 µM (inactive) in the assay on DU-145. Further, the GI50 with MOLT-4, in the assay on Hs-578T, in the assay on CCRF-CEM and in the assay on SK-MEL-5 was > 100 µM (inactive) throughout.

For `CCOC(=O)Nc1nn[nH]c1Cl`, the GI50 was > 100 µM (inactive) in the assay with OVCAR-8; > 100 µM (inactive) with COLO 205; > 100 µM (inactive) in the assay on OVCAR-5; > 100 µM (inactive) in the assay with LOX IMVI; > 100 µM (inactive) with MDA-MB-435; 63 µM (inactive) in the assay with KM12. Also, the GI50 in the assay with NCI-H226, with U-251, in the assay with OVCAR-3, in the assay on NCI-H460, in the assay on IGROV-1 and in the assay with A549 was > 100 µM (inactive) throughout. In addition, the GI50 with MCF7, with DU-145, in the assay on MOLT-4, with Hs-578T and in the assay on SK-MEL-5 was > 100 µM (inactive) each time.

For the molecule `CCOc1snc(C(Cl)(Cl)Cl)c1Cl`, the GI50 is 24.4 µM (inactive) in the assay on OVCAR-8; 18.8 µM (inactive) in the assay with COLO 205; > 100 µM (inactive) in the assay with OVCAR-5; 16.9 µM (inactive) in the assay on LOX IMVI; 18.3 µM (inactive) with MDA-MB-435; 19.8 µM (inactive) with KM12. Further, the GI50 with NCI-H226 was 9.33 µM (inactive); in the assay on U-251 it was 27.7 µM (inactive); in the assay on OVCAR-3 it was 14.1 µM (inactive); in the assay with NCI-H460, 26.9 µM (inactive); in the assay on IGROV-1, 31 µM (inactive); in the assay on A549 it was 17.5 µM (inactive). Moreover, the GI50 in the assay with MCF7 was 25 µM (inactive); in the assay on ACHN, 7.85 µM (inactive); in the assay with DU-145 it was 16.6 µM (inactive); in the assay on MOLT-4, 13.3 µM (inactive); in the assay on Hs-578T, 18.9 µM (inactive); in the assay on CCRF-CEM, 17.3 µM (inactive). The GI50 with SK-MEL-5 was 7.83 µM (inactive).

In the case of `CC(CO)(CO)N1C(=O)C2C3c4ccccc4C(c4ccccc43)C2C1=O` (centres undefined), the GI50 with OVCAR-8, in the assay on COLO 205, with OVCAR-5, in the assay on MDA-MB-435, in the assay on KM12 and in the assay on NCI-H226 was > 100 µM (inactive) each time. Moreover, the GI50 in the assay with U-251, in the assay with OVCAR-3, in the assay on NCI-H460, with IGROV-1, in the assay with A549 and with MCF7 was > 100 µM (inactive) each time. The GI50 in the assay on ACHN is > 100 µM (inactive); with DU-145, 50.4 µM (inactive); with MOLT-4 it was > 100 µM (inactive); in the assay on Hs-578T, > 100 µM (inactive); in the assay with CCRF-CEM, > 100 µM (inactive); in the assay with SK-MEL-5, > 100 µM (inactive).

For `OCCN=C1c2ccccc2C2C(c3ccccc31)C1c3ccccc3C(=NCCO)c3ccccc3C21` (centres undefined), the GI50 with OVCAR-8 was 26.9 µM (inactive); in the assay on COLO 205, 15.6 µM (inactive); with OVCAR-5, 19.6 µM (inactive); in the assay with LOX IMVI, 22 µM (inactive); in the assay with MDA-MB-435 it was 18 µM (inactive); in the assay with KM12 it was 17.1 µM (inactive). Further, the GI50 is < 0.01 µM (active) with NCI-H226; 20.2 µM (inactive) in the assay with U-251; 18.2 µM (inactive) in the assay on OVCAR-3; 26.9 µM (inactive) with NCI-H460; 15.5 µM (inactive) in the assay with IGROV-1; 20.6 µM (inactive) in the assay with A549. Further, the GI50 in the assay with MCF7 was 20.3 µM (inactive); with ACHN, 23.6 µM (inactive); with DU-145, 21.7 µM (inactive); in the assay on MOLT-4 it was 8.91 µM (inactive); in the assay on Hs-578T, 12.6 µM (inactive); with CCRF-CEM, 11.6 µM (inactive). In addition, in the assay on SK-MEL-5, the GI50 was 16.8 µM (inactive).

Regarding `COc1ccc(-n2c3c(c4cc(O)ccc42)Cc2ccccc2C3=O)cc1`, the GI50 in the assay on OVCAR-8 was 48 µM (inactive); with COLO 205 it was 11.7 µM (inactive); with LOX IMVI it was 35.9 µM (inactive); with MDA-MB-435, 64.6 µM (inactive); with KM12 it was 28.8 µM (inactive); with NCI-H226, 63.7 µM (inactive). Also, the GI50 with U-251 is 45.2 µM (inactive); in the assay on OVCAR-3, 21.4 µM (inactive); with NCI-H460 it was 16.1 µM (inactive); with IGROV-1, 29.7 µM (inactive); in the assay on A549, 35.6 µM (inactive); with MCF7 it was 9.16 µM (inactive). In addition, the GI50 in the assay with DU-145 was > 100 µM (inactive); in the assay with MOLT-4 it was 11.5 µM (inactive); in the assay with Hs-578T it was > 100 µM (inactive); with CCRF-CEM it was 4.9 µM (inactive); in the assay on SK-MEL-5, 39.2 µM (inactive).

Turning to `Cc1c2cnccc2nc2[nH]c3ccncc3c12`, the GI50 with OVCAR-8 was 6.98 µM (inactive); with COLO 205, 8.49 µM (inactive); in the assay on OVCAR-5, 5.62 µM (inactive); in the assay on LOX IMVI, 2.29 µM (inactive); in the assay with MDA-MB-435, 6.46 µM (inactive); in the assay on KM12, 6.79 µM (inactive). The GI50 was 3.78 µM (inactive) in the assay on HOP-92; 4.68 µM (inactive) in the assay with U-251; 10.4 µM (inactive) with OVCAR-3; 2.16 µM (inactive) with NCI-H460; 2.85 µM (inactive) with IGROV-1; 2.94 µM (inactive) with A549. For the same molecule, the GI50 in the assay on ACHN is 1.59 µM (inactive); in the assay on DU-145, 10.7 µM (inactive); in the assay with MOLT-4, 6.31 µM (inactive); in the assay on Hs-578T, 16.6 µM (inactive); with CCRF-CEM, 5.75 µM (inactive); with SK-MEL-5, 5.69 µM (inactive).

`O=C(Cn1c2ccc(Br)cc2c2nc3ccccc3nc21)NC1CCCCC1`: the GI50 with OVCAR-8, in the assay on COLO 205, in the assay on OVCAR-5, in the assay with LOX IMVI, in the assay with MDA-MB-435 and in the assay on KM12 was > 100 µM (inactive) in each case. Further, the GI50 in the assay with HOP-92 is 51.1 µM (inactive); in the assay with NCI-H226 it was > 100 µM (inactive); with U-251 it was > 100 µM (inactive); with OVCAR-3, > 100 µM (inactive); in the assay on NCI-H460 it was > 100 µM (inactive); in the assay with IGROV-1, > 100 µM (inactive). Moreover, the GI50 is > 100 µM (inactive) in the assay on A549; > 100 µM (inactive) in the assay on ACHN; > 100 µM (inactive) in the assay on DU-145; > 100 µM (inactive) in the assay with MOLT-4; 43.3 µM (inactive) with Hs-578T; > 100 µM (inactive) in the assay with SK-MEL-5.

Regarding `O=c1[nH]nc(Cc2ccccc2)n1/N=C/c1cccs1`, the GI50 with OVCAR-8, in the assay on COLO 205, in the assay with OVCAR-5, in the assay with LOX IMVI, in the assay with MDA-MB-435 and in the assay with KM12 was > 100 µM (inactive) throughout. Moreover, the GI50 with NCI-H226 was > 100 µM (inactive); in the assay with U-251, 48 µM (inactive); with OVCAR-3, > 100 µM (inactive); in the assay on NCI-H460 it was > 100 µM (inactive); in the assay with A549, > 100 µM (inactive); in the assay on MCF7, > 100 µM (inactive). Besides, the GI50 is > 100 µM (inactive) in the assay on ACHN; > 100 µM (inactive) in the assay with DU-145; 80.7 µM (inactive) in the assay on MOLT-4; > 100 µM (inactive) with Hs-578T; > 100 µM (inactive) with CCRF-CEM.

As for `Cc1cc(N(CCC#N)CCC#N)ccc1C(/N=N/c1ccc(C(=O)O)cc1)=N\NC(=O)c1ccccc1`, the GI50 is 28.1 µM (inactive) in the assay on OVCAR-8; 28.5 µM (inactive) with COLO 205; > 100 µM (inactive) with OVCAR-5; 3.94 µM (inactive) in the assay on MDA-MB-435; 18.2 µM (inactive) in the assay on KM12; 40.9 µM (inactive) with NCI-H226. For the same molecule, the GI50 in the assay with U-251 was 34.8 µM (inactive); in the assay on OVCAR-3, > 10 µM (inactive); in the assay with NCI-H460 it was 22.9 µM (inactive); in the assay on IGROV-1 it was 50.2 µM (inactive); in the assay with A549, 25.8 µM (inactive); with MCF7, 22.8 µM (inactive). The GI50 in the assay on ACHN was 59.7 µM (inactive); in the assay with DU-145, 71.4 µM (inactive); in the assay with MOLT-4, 47.1 µM (inactive); with Hs-578T, 14.4 µM (inactive); with CCRF-CEM it was 30.4 µM (inactive); in the assay with SK-MEL-5 it was 19.5 µM (inactive).

The values are drawn from ChEMBL document CHEMBL1201862, “PubChem BioAssay data set” (2004).
